Experimental data: patent US20230277553A1, “THERAPEUTIC COMPOSITION OF CURE-PRO COMPOUNDS FOR TARGETED DEGRADATION OF BET DOMAIN PROTEINS, AND METHODS OF MAKING AND USAGE” (CORNELL UNIVERSITY, priority 2020, published 2023)
“Also recorded” adds a separate entry of the source.

Legend:
BRD4 [1] = biological target: T1, BRD4 (Homo sapiens, UniProt O60885); assay: CURE-PRO-mediated BRD4 degradation with VHL ligands, Western blot, MCF7 cells; type: cell-based; set-up: endogenous in cells; details: MCF7, 24 h, 1:1 with 8305, 100 nM-10 μM
Procedure: All cell lines were purchased from ATCC or DSMZ and grown at 37° C. with 5% CO2. Human HeLa cells were cultured in complete growth medium (Dulbecco's modified Eagle's medium (DMEM) supplemented with 10% FBS); MCF7 cells were cultured in complete growth medium (Dulbecco's modified Eagle's medium (DMEM) supplemented with 10% FBS and 0.01 mg/ml human recombinant insulin (Sigma Aldrich); Namalwa and MOLM-13 cells were cultured in complete growth medium (RPMI 1640 medium supplemented with 10% FBS); MV-4-11 were cultured in complete growth medium (Iscove's Modified Dulbecco's medium, supplemented with 10% FBS); HCT116 cells were cultured in complete growth medium (McCoy's 5a Medium supplemented with 10% FBS). For cellular degradation of BRD4 studies, cells were seeded in a 12-well plate at 70-80% confluency, allowed to attach overnight, and incubated with the indicated compounds for the indicated time. When indicated, a 15-minute pretreatment with 10 μM pomalidomide, 10 μM VHL298, 10 μM Nutlin3a, 1 μM MG-132 or 1 μM Carfilzomib was performed before the addition of CURE-PROs. For washout studies, after CURE-PRO treatment, media was aspirated and incubated with complete medium for the indicated time before lysis.
HeLa, MCF7, or HCT116 cells (2.5-3×10^6) were treated for 24 hours with the indicated compounds solubilized in DMSO. The cells were washed in ice-cold PBS and were then lysed in RIPA lysis buffer (150 mM NaCl, 5 mM EDTA, 1% NP-40, 0.5% sodium deoxycholate, 0.1% SDS, 50 mM Tris, pH 8.0.) with Roche protease inhibitor complete cocktail and phosphatase inhibitors (10 mM sodium fluoride, 10 mM sodium pyrophosphate, 1 mM sodium orthovanadate and 20 mM β-glycerophosphate). The total protein concentrations were determined by Bradford Protein Assay and 10-20 μg of protein was loaded onto 4-15% Tris-Glycine gradient gels (Biorad). After standard gel electrophoresis, the separated proteins were transferred to PVDF membrane by wet transfer. The immunoblots were then blocked for 1 hour in 5% skim milk in TBST or 5% BSA in TBST, according to manufacturer's instructions, before an overnight incubation at 4° C. with indicated antibodies and membranes. Membranes were then incubated with the appropriate horseradish peroxidase-conjugated secondary antibodies (1:5,000 dilution) for 1 h at room temperature and the bands were visualized using the Clarity Max Western ECL Substrate (Biorad) and the ChemiDoc Imaging System (Biorad). Signal was detected with ECL Western Blotting Substrate (Pierce) and X-ray film processed with a Konica SRX-101 X-ray film processor or captured by Bio-Rad's Chemidoc Imaging system.
MCF7 cells (3×10^6) were treated for 24 h with the compounds solubilized in DMSO. Compounds were added at 100 nM-10 μM. […]

BRD4 [2] = biological target: T1, BRD4; assay: CURE-PRO-mediated BRD4 degradation with VHL ligands, WES (ProteinSimple), MCF7 cells; type: cell-based; set-up: endogenous in cells; details: MCF7, 10 μM each

CCNC(=O)C[C@@H]1N=C(c2ccc(Cl)cc2)c2cc(OCCCCC(=O)Nc3cccc(B(O)O)c3)ccc2-n2c(C)nnc21 [BRD-E20, (3-(5-(((4S)-6-(4-chlorophenyl)-4-(2-(ethylamino)-2-oxoethyl)-1-methyl-4H-benzo[f][1,2,4]triazolo[4,3-a][1,4]diazepin-8-yl)oxy)pentanamido)phenyl)boronic acid]
BRD4 degradation, with VHL ligand 8305 (Western blot) (BRD4 [1]): there is degradation of BRD4
BRD4 degradation, with VHL ligand 8304 (WES) (BRD4 [2]): failed to induce BRD4 degradation
BRD4 degradation, with VHL ligand 8305 (WES) (BRD4 [2]; 1:1 with 8305, 4-24 h, with washout where stated): caused BRD4 degradation; also recorded: marked BRD4 degradation
